In paper PMC1977344 (British Journal of Cancer, 1992):
Read-outs that look alike come from different tables or passages of the source.

Columns and labels:
[1] = cited from earlier work
[2] = normal volunteers; ref Thompson et al., 1990; cited from earlier work
[3] = open study in man; ref Osborne et al., 1989; cited from earlier work
delta receptor [4] = molecular target: T1, delta receptor (Rattus norvegicus, UniProt P33533); assay: Radioligand binding, delta assay (3H-DSLET displacement with DAGO block, rat brain P2 homogenate); design: species or system Wistar rats
T1 construct: from tissue

mu 1 receptor = mu 1 receptor (Rattus norvegicus, UniProt P33535); assay: Radioligand binding, mu 1 assay (3H-DSLET displacement with DPDPE block, rat brain P2 homogenate); design: species or system Wistar rats
[5] = molecular target: T2, total mu (mu 1 and mu 2) receptor (Rattus norvegicus, UniProt P33535); assay: Radioligand binding, total mu assay (3H-DAGO displacement, rat brain P2 homogenate); design: species or system Wistar rats; specific binding of the 3H-ligand remaining, total mu assay: dose or concentration left out as unconfirmed
T2 construct: from tissue

[6] = ref Shimomum et al. (1971); cited from earlier work
delta receptor [7] = test system: delta receptor; design: method as in Oguri et al. (1987); conditions: 3H-leucine enkephalin; ref Oguri et al. (1987); cited from earlier work
mu 2 receptor [8] = molecular target: T3, mu 2 receptor (Rattus norvegicus, UniProt P33535); conditions: for fold lower affinity of M6G than morphine at the mu 2 receptor (IC50 ratio): from mean IC50s; for specific binding of the 3H-ligand remaining, mu 2 assay: test substance at 5 µM (5 pM in methods)
mu 2 receptor [9] = molecular target: T3, mu 2 receptor; assay: biochemical; conditions: IC50 mu 2 receptor
kappa receptor = test system: kappa receptor; design: method as in Pasternak et al., 1987; conditions: not yet accurately determined; ref Pasternak et al., 1987; cited from earlier work
[10] = test substance at 5 µM (5 pM in methods)

T1 sequence (P33533 whole entry): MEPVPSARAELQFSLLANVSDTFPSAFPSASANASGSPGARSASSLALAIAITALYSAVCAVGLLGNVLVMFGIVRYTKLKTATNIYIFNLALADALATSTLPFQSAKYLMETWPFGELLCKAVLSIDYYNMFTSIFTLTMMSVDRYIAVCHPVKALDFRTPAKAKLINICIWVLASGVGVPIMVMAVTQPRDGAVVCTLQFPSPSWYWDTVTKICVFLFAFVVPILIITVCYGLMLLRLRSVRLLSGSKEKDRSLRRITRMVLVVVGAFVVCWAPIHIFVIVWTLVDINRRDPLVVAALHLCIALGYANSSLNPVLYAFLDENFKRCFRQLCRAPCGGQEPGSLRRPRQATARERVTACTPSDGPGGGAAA
T2 sequence (P33535 whole entry): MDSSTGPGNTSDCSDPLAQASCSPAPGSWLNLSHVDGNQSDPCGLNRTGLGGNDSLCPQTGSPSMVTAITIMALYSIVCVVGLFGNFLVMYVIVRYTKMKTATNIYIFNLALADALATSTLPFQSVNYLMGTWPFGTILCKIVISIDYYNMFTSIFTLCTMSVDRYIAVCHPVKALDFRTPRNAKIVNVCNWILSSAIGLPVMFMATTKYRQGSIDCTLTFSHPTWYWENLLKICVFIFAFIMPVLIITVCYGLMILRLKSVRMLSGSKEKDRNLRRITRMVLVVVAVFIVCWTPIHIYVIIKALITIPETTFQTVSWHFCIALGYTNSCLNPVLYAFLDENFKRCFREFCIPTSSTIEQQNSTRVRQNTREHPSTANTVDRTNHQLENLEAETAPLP
Sequence of mu 1 receptor (P33535 whole entry): as above
T3 sequence (P33535 whole entry): as above

CN1CC[C@]23c4c5ccc(O[C@@H]6O[C@H](C(=O)O)[C@@H](O)[C@H](O)[C@H]6O)c4O[C@H]2[C@@H](O)C=C[C@H]3[C@H]1C5 [M3G, morphine 3-glucuronide]
analgesic activity ([1]; ref Osborne et al., 1986, Hanks et al., 1987, Hoskin & Hanks, 1990): devoid of analgesic activity

CN1CC[C@]23c4c5ccc(O)c4O[C@H]2[C@@H](O[C@@H]2O[C@H](C(=O)O)[C@@H](O)[C@H](O)[C@H]2O)C=C[C@H]3[C@H]1C5 [M6G, morphine 6-glucuronide]
nausea and sedation versus morphine [2]: less nausea and no sedation
respiratory depression versus equipotent dose of morphine [2]: significantly less respiratory depression
nausea or sedation at doses sufficient to give significant pain relief [3]: no nausea or sedation was seen
IC50 (delta receptor [4]): 75 nM
IC50 (mu 1 receptor; read-out: IC50 mu 1 receptor, whole brain preparations, P2 fraction of whole rat brain homogenate, single assay): 170 nM
IC50 [5]: 80 nM
systemic LD50 relative to that of morphine [6]: 88%
affinity for the delta receptor relative to morphine (delta receptor [7]): slightly higher affinity
fold lower affinity of M6G than morphine at the mu 2 receptor (IC50 ratio) (mu 2 receptor [8]): 4.8 fold
fold lower affinity of M6G than morphine at the mu 2 receptor (IC50 ratio) (mu 2 receptor [8]; listed as Morphine 6-glucuronide): 4 fold
systemic analgesic potency advantage over morphine ([1]; systemic, ref Shimomura et al., 1971, Abbott & Palmour, 1988): 3 fold
IC50 (mu 2 receptor [9]; brain minus hypothalami, P2 fraction, 3H-DAGO 1.5 nM, DSLET 5 nM block, mean ± SEM): 82 nM
IC50 (mu 2 receptor [9]; whole brain preparations, P2 fraction of whole rat brain homogenate, single assay): 66 nM
affinity for the kappa receptor (kappa receptor): thought to be low

CN1CC[C@@]23CCCC[C@@H]2[C@@H]1Cc1ccc(O)cc13 [dextrorphan]
specific binding of the 3H-ligand remaining, delta assay (delta receptor [4]; [10]): no inhibition was observed
specific binding of the 3H-ligand remaining, mu 1 assay (mu 1 receptor; [10]): no inhibition was observed
specific binding of the 3H-ligand remaining, total mu assay [5]: 70%
specific binding of the 3H-ligand remaining, mu 2 assay (mu 2 receptor [8]): 72%

CN1CC[C@]23CCCC[C@H]2[C@H]1Cc1ccc(O)cc13 [levorphanol]
specific binding of the 3H-ligand remaining, delta assay (delta receptor [4]): 0%
specific binding of the 3H-ligand remaining, mu 1 assay (mu 1 receptor): 1%
specific binding of the 3H-ligand remaining, total mu assay [5]: 0%
specific binding of the 3H-ligand remaining, mu 2 assay (mu 2 receptor [8]): 28%
